# Results taken from patent publication US20030208035A1, “Antifungal and/or antibacterial peptides, preparation methods, compositions containing same and methods of treating mammals and/or plants” (priority 2000, published 2003).
# Bridges are numbered along the chain shown (N, C = ends). Where no end group is shown, it is not given here.
# Tests used:
# C. albicans = format: cell-based, Candida albicans; details: 24 h
# Experimental: (§1) Candida yeasts (C. albicans, C. glabrata, C. dubliensis, C. tropicalis, C. kefyr, C. krusei and C. parapsilosis—donated by Dr. H. Koenig, Hôpital Civil, Strasbourg), fluconazole-resistant C. albicans (n^o245962, n^o2332, n^o246335 and n^o3552, donated by Drs. J.Meis and J. Mouton, University Hospital, Microbiology Department, Nijmegen, Netherlands), and Cryptoccocus neoformans (donated by Dr. H. Koenig, Hôpital Civil, Strasbourg) were seeded on Sabouraud-Cloramphenicol Agar slant gelose (Biomerieux) and left to incubate for 24 h at 30° C. (Candida sp.) and for 72 h at 37° C. (Cryptoccocus neoformans).
# (§2) Some yeast colonies were placed in suspension in liquid Sabouraud medium (Biomerieux) to obtain a final concentration of 0.1 OD at 600 nm corresponding to 2.5.10^6 yeasts/ml.
# (§3) The yeast suspension was adjusted to 5.10^3 yeast/ml in Sabouraud medium.
# (§4) 100 μl of peptide dilutions (concentration of 50 with 0.097 μg/ml peptide) were deposited in microtitration plates. After adding […] of yeast suspension with 5.10^3 yeast/ml i.e. 500 yeasts, the test plates were incubated 24 h at 30° C. (Candida) under slow shaking or 72 h at 37° C. (Cryptoccocus).
# (§5) Determination of minimal inhibiting concentrations (MIC) was made by measuring absorbency at 600 nm using a spectrophotometer-microtitration plate reader. The MIC score was set at a growth inhibition rate of 50%.
# A. fumigatus = format: cell-based; details: 48 h
# Experimental: The antifungal activity was detected by a growth inhibition test in a liquid medium.
# The filamentous fungi (A. fumigatus, A. flavus and A. terreus, donated by Dr. H. Koenig, Hôpital Civil, Strasbourg; and S. prolificans and F. solani donated by Drs. J. Meis and J. Mouton, University hospital, Microbioolgy Department, Nijmegen, Netherlands) were seeded on Malt-Agar slant gelose (Biomerieux) and incubated 7 days at 37° C.
# The spores were then collected with 10 ml YPG medium containing 0.05% Tween 20 and filtered through a gauze. The spores were centrifuged 10 min at 1700 rpm, the residue was collected in YPG (1 g Yeast extract, 1 g Peptone, 3 g Glucose per 1 l).
# The suspension was counted with a Coverslide and adjusted to 10^4 spores/ml.
# 100 μl of peptide dilutions (concentration of 50 with 0.097 μg/ml peptide) were deposited in microtitration plates. 100 μl with 10^4 spores/ml of filamentous fungi, i.e. 1000 spores, were then added.
# The test plates were incubated 48 h at 37° C.
# Determination of minimum inhibiting concentrations (MIC) was made by observing well cover rate. The MIC score was set at 50% well covering.
# [1] = tested on: fluconazole-resistant C. albicans; experiment: microbe, parasite or virus in culture; format: cell-based, Candida albicans; details: fluconazole-resistant
# Experimental: as §1, §2, §3, §4, §5
Sequence,MIC (C. albicans) [µg/mL],MIC (A. fumigatus) [µg/mL],MIC [1] [µg/mL]
"DKLIGSCVWGAVNYTSNCNAECKRRGYKGGHCGSFLNVNCWCET (disulfide 7-32, 18-40, 22-42 (inferred)) [pEM35]",1.56,6.25,–
"DKLIGSCVWGAVNYTSNCNAECKRRGYKGGHCGSFLNVNCWCQT (disulfide 7-32, 18-40, 22-42 (inferred)) [pEM46]",–,3.125,–
"DKLIGSCVWGAVNYTSNCRAECKRRGYKGGHCGSFANVNCWCET (disulfide 7-32, 18-40, 22-42 (inferred)) [pEM51]",–,–,1.56
